Experiment: Inhibition of EphB2

Compound	EC50 [nM]
Cc1ccc(C(=O)Nc2cccc(C(F)(F)F)c2)cc1Nc1cncc(C(N)=O)c1 [5-[(2-methyl-5-{[3-(trifluoromethyl)phenyl]carbamoyl}phenyl)amino]pyridine-3-carboxamide]	40
Cc1cn(-c2cc(NC(=O)c3ccc(C)c(NC(=O)c4ccno4)c3)cc(C(F)(F)F)c2)cn1 [N-(2-methyl-5-(3-(4-methyl-1H-imidazol-1-yl)-5-(trifluoromethyl)phenylcarbamoyl)phenyl)isoxazole-5-carboxamide]	40

From BindingDB's records for doi:10.1016/j.bmcl.2009.05.029 (Institute, 2009)
